Experimental data: patent US12268724B2, “Methods and compositions for the prevention or treatment of Barth Syndrome” (Stealth BioTherapeutics Inc., priority 2013, dated 2025)
Where no end group is shown, it is not given here. [ ]: non-standard residue; d: D form.

Assays:
[1] = tested on: plasma membrane of several mammalian cell types; settings: cited from earlier work
mu-opioid receptor = mu-opioid receptor (Homo sapiens, UniProt P35372); assay: Mu-opioid receptor agonist activity; settings: stated in description, no test described
mitochondria = assay: Electron microscopy of mitochondrial ultrastructure and organization in tissue from cardiac disease subject; format: in vivo
Description: A tissue sample from a subject with Barth Syndrome and tissue samples from a subject with cardiac disease was prepared for electron microscopy imaging of the mitochondria using standards known in the art. […] FIG. 3.

TAZ1 = TAZ1 mRNA expression in a dog model of heart failure (real-time PCR of LV tissue); format: in vivo; settings: dogs with microembolization-induced heart failure, 0.5 mg/kg once daily subcutaneous, three months, saline control 2.25-fold
Description: Twelve dogs were subject to coronary microembolization-induced heart failure (LV ejection fraction ˜30%) as described above in Example 1. Subjects were randomized into D-Arg-2′6′-Dmt-Lys-Phe-NH2-treated and control groups for a three-month trial. Subjects received subcutaneous injections of D-Arg-2′6′-Dmt-Lys-Phe-NH2 (0.5 mg/kg once daily, n=6) or saline (Untreated-HF Control, n=6). RNA was prepared from LV tissue of all subjects at the end of the treatment phase and from the LV of six normal subject controls. Levels of TAZ1 mRNA were determined by real-time PCR. Changes in mRNA levels were expressed as fold reduction using the CT Method, with normalization to a […] (GAPDH) internal control.

mu-opioid receptor, sequence (P35372 whole entry, species assumed): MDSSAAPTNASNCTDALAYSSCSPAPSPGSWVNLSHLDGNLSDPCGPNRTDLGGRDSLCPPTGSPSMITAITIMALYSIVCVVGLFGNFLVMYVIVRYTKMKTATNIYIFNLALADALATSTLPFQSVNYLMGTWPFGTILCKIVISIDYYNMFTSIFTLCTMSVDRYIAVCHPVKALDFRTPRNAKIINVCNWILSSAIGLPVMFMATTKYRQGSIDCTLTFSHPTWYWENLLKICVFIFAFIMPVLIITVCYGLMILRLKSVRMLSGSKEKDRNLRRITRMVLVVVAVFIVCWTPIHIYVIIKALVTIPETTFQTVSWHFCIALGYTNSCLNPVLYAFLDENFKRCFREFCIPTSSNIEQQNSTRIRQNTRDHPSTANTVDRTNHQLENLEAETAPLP

Substance	penetration of the plasma membrane [1]	mu-opioid receptor agonist activity (mu-opioid receptor)	ultrastructure of the mitochondria (electron microscopy) (mitochondria; cardiac disease subject treated with an effective amount, FIG. 4A vs 4B)	organization of the mitochondria (electron microscopy) (mitochondria; tissue from treated vs not treated cardiac disease subject, FIGS. 5A-5B)	decrease in TAZ1 mRNA relative to normal subjects (fold reduction, CT Method, normalized to GAPDH) (TAZ1) [fold]
2′, 6′-Dmt-D-Arg-Phe-Lys-NH2	readily penetrates the plasma membrane of several mammalian cell types in an energy-independent manner				
D-Arg-2′6′-Dmt-Lys-Phe-NH2		does not have mu-opioid receptor agonist activity	ameliorated the abnormal features of the ultrastructure of the mitochondria	improved organization of the mitochondria	1.23
F[dR]FK-NH2		does not have mu-opioid receptor agonist activity			
Tyr-D-Arg-Phe-Lys-NH2		has mu-opioid receptor agonist activity			
